Data set [1] can be described thus: CC50 assay (CellTiter-Glo) in Huh-7 HCV replicon cells. Conditions: human, 3 days incubation, CellTiter-Glo readout. It is filed as cell-based, human. The procedure, abridged:
(§1)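 Cytotoxicity (CC50) measured by CellTiter-Glo and antiviral activity (EC50) by luciferase signal from lysed cells, both by luminescence. Replicon-bearing Huh-7 cells, 6000 per well, incubated 3 days at 37 °C with threefold-diluted compound (0.5% DMSO for DMSO-dissolved compounds).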
For orientation: Cellular ATP, detected with luciferase, serves as a proxy for viable cell number.

Data set [2] concerns HCV replicon in human hepatoma Huh-7 cell line. Put plainly: Anti-HCV replicon assay (EC50, luciferase). It is filed as cell-based. The conditions noted are these: Hepatitis C virus, Huh-7, 72 h. The gist of the method:
as §1
For orientation: Replicon systems follow genome replication, usually without infectious particles.

Consider 27 compounds from patent US8729089B2 (Gilead Sciences, Inc., priority 2006, dated 2014).

Structures are written as SMILES.

Usually CC50 stands for the concentration giving 50% cytotoxicity. A lower CC50 goes with greater toxicity to the cells. Broadly, the EC50 is the midpoint of the concentration-response curve. A low value points to a more potent agent. Regarding `CN(CCS(C)(=O)=O)c1nc(NCc2ccc(F)cc2)nc2ccc(-c3ccc(C(N)=O)cc3)nc12` [Example 273, 4-{2-(4-Fluoro-benzylamino)-4-[(2-methanesulfonyl-ethyl)-methyl-amino]-pyrido[3,2-d]pyrimidin-6-yl}-benzamide], the CC50 at 3 days in data set [1] was in the range of 5 to 25 µM. Besides, the EC50 in data set [2] was below 0.1 µM.
`CCOc1nc(NCc2ccc(NS(C)(=O)=O)cc2)nc2ccc(-c3ccc(F)cc3)nc12` [Example 271, N-(4-{[4-Ethoxy-6-(4-fluoro-phenyl)-pyrido[3,2-d]pyrimidin-2-ylamino]-methyl}-phenyl)-methanesulfonamide]: the half-maximal cytotoxic concentration (CC50) at 3 days in data set [1] fell in the range of 5 to 25 µM. Also, the EC50 in data set [2] is below 0.1 µM.
The compound `Cn1cc(-c2ccc3nc(NCc4ccc(S(N)(=O)=O)cc4)nc(NCC(F)(F)F)c3n2)cn1` [Example 166, 4-{[6-(1-Methyl-1H-pyrazol-4-yl)-4-(2,2,2-trifluoro-ethylamino)-pyrido[3,2-d]pyrimidin-2-ylamino]-methyl}-benzenesulfonamide] had a CC50 at 3 days in data set [1] above 25 µM. Further, the EC50 in data set [2] was below 0.1 µM.
`NS(=O)(=O)c1ccc(CNc2nc(NCC(F)(F)F)c3nc(-c4ccc(Cl)c(S(=O)(=O)NC5CCNCC5)c4)ccc3n2)cc1` [Example 200, 2-Chloro-N-piperidin-4-yl-5-[2-(4-sulfamoyl-benzylamino)-4-(2,2,2-trifluoro-ethylamino)-pyrido[3,2-d]pyrimidin-6-yl]-benzenesulfonamide]: in data set [1], the CC50 at 3 days was below 5 µM. The half-maximal effective concentration (EC50) in data set [2] was below 0.1 µM.
For the compound `NS(=O)(=O)c1ccc(CNc2nc(NC3CC3)c3nc(-c4ccc(F)cc4)ccc3n2)cc1` [Example 296, 4-{[4-Cyclopropylamino-6-(4-fluoro-phenyl)-pyrido[3,2-d]pyrimidin-2-ylamino]-methyl}-benzenesulfonamide], the CC50 at 3 days in data set [1] is above 25 µM. Moreover, the half-maximal effective concentration (EC50) in data set [2] is below 0.1 µM.
`Fc1ccc(-c2ccc3nc(NCc4ccc(-n5cncn5)cc4)nc(NCC(F)(F)F)c3n2)cc1` [Example 251, 6-(4-Fluoro-phenyl)-N2-(4-[1,2,4]triazol-1-yl-benzyl)-N4-(2,2,2-trifluoro-ethyl)-pyrido[3,2-d]pyrimidine-2,4-diamine] registered a CC50 at 3 days in data set [1] above 25 µM. The same compound showed an EC50 in data set [2] below 0.1 µM.
In the case of `NS(=O)(=O)c1ccc(CNc2nc(NCC(F)(F)F)c3nc(-c4ccc(NC(=O)[C@H]5CCNC5)c(F)c4)ccc3n2)cc1` [Example 219, Pyrrolidine-3-carboxylic acid {2-fluoro-4-[2-(4-sulfamoyl-benzylamino)-4-(2,2,2-trifluoro-ethylamino)-pyrido[3,2-d]pyrimidin-6-yl]-phenyl}-amide], in data set [1], the CC50 at 3 days is below 5 µM. In data set [2], this compound showed an EC50 below 0.1 µM.
For `Nc1ncc(-c2ccc3nc(NCc4ccc(S(N)(=O)=O)cc4)nc(NC4CC4)c3n2)s1` [Example 183, 4-{[6-(2-Amino-thiazol-5-yl)-4-cyclopropylamino-pyrido[3,2-d]pyrimidin-2-ylamino]-methyl}-benzenesulfonamide] the same measures were 5 to 25 µM and below 0.1 µM.
In the case of `NC(=O)CCNc1nc(NCC(F)(F)F)c2nc(-c3ccc(F)cc3)ccc2n1` [Example 260, 3-[6-(4-Fluoro-phenyl)-4-(2,2,2-trifluoro-ethylamino)-pyrido[3,2-d]pyrimidin-2-ylamino]-propionamide], in data set [1], the cytotoxic concentration (CC50) at 3 days was in the range of 5 to 25 µM. In data set [2], this compound came in with an EC50 below 0.1 µM.
The corresponding values for `CCOc1nc(NCc2ccc(S(N)(=O)=O)cc2)nc2ccc(-c3ccc(NC(=O)NCCN4CCOCC4)cc3)nc12` [Example 123, 4-{[4-Ethoxy-6-(4-(3-(2-(morpholin-4-yl)ethyl)ureido)-phenyl)-pyrido[3,2-d]pyrimidin-2-ylamino]-methyl}-benzenesulfonamide] are 5 to 25 µM and below 0.1 µM.
For `CCOc1nc(NCc2ccc(F)cc2)nc2ccc(-c3cnc(N)s3)nc12` [Example 100, [6-(2-Amino-thiazol-5-yl)-4-ethoxy-pyrido[3,2-d]pyrimidin-2-yl]-(4-fluoro-benzyl)-amine], the half-maximal cytotoxic concentration (CC50) at 3 days in data set [1] is below 5 µM. The compound also gave an EC50 in data set [2] below 0.1 µM.
In the case of `COCCNS(=O)(=O)c1cc(-c2ccc3nc(NCc4ccc(S(N)(=O)=O)cc4)nc(NCC(F)(F)F)c3n2)ccc1Cl` [Example 198, 2-Chloro-N-(2-methoxy-ethyl)-5-[2-(4-sulfamoyl-benzylamino)-4-(2,2,2-trifluoro-ethylamino)-pyrido[3,2-d]pyrimidin-6-yl]-benzenesulfonamide], the CC50 at 3 days in data set [1] lay within 5 to 25 µM. The EC50 in data set [2] was below 0.1 µM.
With `CCOc1nc(NCc2c(F)cc(F)cc2F)nc2ccc(-c3ccc(F)cc3)nc12` [Example 39, (4-Ethoxy-6-(4-fluoro-phenyl)-pyrido[3,2-d]pyrimidin-2-yl]-(2,4,6-trifluoro-benzyl)-amine], the CC50 at 3 days in data set [1] fell in the range of 5 to 25 µM. In addition, in data set [2], the EC50 was below 0.1 µM.
In turn, `NC(=O)c1ccc(-c2ccc3nc(NCc4ccc(F)cc4)nc(NCC(F)(F)F)c3n2)cc1` [Example 272, 4-[2-(4-Fluoro-benzylamino)-4-(2,2,2-trifluoro-ethylamino)-pyrido[3,2-d]pyrimidin-6-yl]-benzamide] had a cytotoxic concentration (CC50) at 3 days in data set [1] below 5 µM. The compound further showed a concentration for a half-maximal effect (EC50) in data set [2] below 0.1 µM.
In data set [1], `CC(Nc1nc(NCC(F)(F)F)c2nc(-c3ccc(F)cc3)ccc2n1)c1ccc(-n2cncn2)cc1` (stereo not drawn) [Example 255, 6-(4-Fluoro-phenyl)-N2-[1-(4-[1,2,4]triazol-1-yl-phenyl)-ethyl]-N4-(2,2,2-trifluoro-ethyl)-pyrido[3,2-d]pyrimidine-2,4-diamine] returned a CC50 at 3 days of 5 to 25 µM. Besides, the half-maximal effective concentration (EC50) in data set [2] is below 0.1 µM.
In the case of `CCOc1nc(NCc2ccc(F)cc2)nc2ccc(-c3cccc(N(CCO)S(C)(=O)=O)c3)nc12` [Example 102, N-{3-[4-Ethoxy-2-(4-fluoro-benzylamino)-pyrido[3,2-d]pyrimidin-6-yl]-phenyl}-N-(2-hydroxy-ethyl)-methanesulfonamide], the CC50 at 3 days in data set [1] was in the range of 5 to 25 µM. Further, the EC50 in data set [2] is below 0.1 µM.
The corresponding values for `CC(C)(C)OC(=O)N1CC[C@@H](NS(=O)(=O)c2cc(-c3ccc4nc(NCc5ccc(S(N)(=O)=O)cc5)nc(NCC(F)(F)F)c4n3)ccc2F)C1` [Example 205, 3-{2-Fluoro-5-[2-(4-sulfamoyl-benzylamino)-4-(2,2,2-trifluoro-ethylamino)-pyrido[3,2-d]pyrimidin-6-yl]-benzenesulfonylamino}-pyrrolidine-1-carboxylic acid tert-butyl ester] are below 5 µM and below 0.1 µM.
Regarding `CCOc1nc(NCc2ccc(F)cc2)nc2ccc(-c3cnc(NC(=O)C4CC4)nc3)nc12` [Example 80, Cyclopropanecarboxylic acid {5-[4-ethoxy-2-(4-fluoro-benzylamino)-pyrido[3,2-d]pyrimidin-6-yl]-pyrimidin-2-yl}-amide], the half-maximal cytotoxic concentration (CC50) at 3 days in data set [1] lay within 5 to 25 µM. For the same compound, the EC50 in data set [2] was below 0.1 µM.
In data set [1], `NS(=O)(=O)c1ccc(CNc2nc(OC3CCC3)c3nc(-c4ccc(F)cc4)ccc3n2)cc1` [Example 111, 4-{[4-Cyclobutoxy-6-(4-fluoro-phenyl)-pyrido[3,2-d]pyrimidin-2-ylamino]-methyl}-benzenesulfonamide] came in with a CC50 at 3 days of 5 to 25 µM. The same compound gave an EC50 in data set [2] below 0.1 µM.
For `CN(CCS(C)(=O)=O)c1nc(NCc2ccc(F)cc2)nc2ccc(-c3ccc(F)cc3)nc12` [Example 28, N2-(4-Fluoro-benzyl)-6-(4-fluoro-phenyl)-N4-(2-methanesulfonyl-ethyl)-N4-methyl-pyrido[3,2-d]pyrimidine-2,4-diamine] the same measures were above 25 µM and below 0.1 µM.
For the compound `CCOc1nc(NCc2ccc(F)cc2)nc2ccc(-c3ccc(NC(=O)C4CC4)cc3)nc12` [Example 67, Cyclopropanecarboxylic acid {4-[4-ethoxy-2-(4-fluoro-benzylamino)-pyrido[3,2-d]pyrimidin-6-yl]-phenyl}-amide], the CC50 at 3 days in data set [1] was 5 to 25 µM. Also, the half-maximal effective concentration (EC50) in data set [2] was below 0.1 µM.
In data set [1], `CCOc1nc(NCc2ccc(S(N)(=O)=O)cc2)nc2ccc(-c3ccc(N4CC(O)CC4=O)cc3)nc12` (stereo not drawn) [Example 227, 4-({4-Ethoxy-6-[4-(4-hydroxy-2-oxo-pyrrolidin-1-yl)-phenyl]-pyrido[3,2-d]pyrimidin-2-ylamino}-methyl)-benzenesulfonamide] gave a CC50 at 3 days above 25 µM. In data set [2], the EC50 was below 0.1 µM.
As to `CCOc1nc(NCc2ccc(F)cc2F)nc2ccc(-c3ccc(C(=O)NC4CC4)cc3)nc12` [Example 107, N-Cyclopropyl-4-[2-(2,4-difluoro-benzylamino)-4-ethoxy-pyrido[3,2-d]pyrimidin-6-yl]-benzamide], the CC50 at 3 days in data set [1] lay within 5 to 25 µM. Moreover, in data set [2], the EC50 was below 0.1 µM.
For `NC(=O)c1ccc(-c2ccc3nc(NCc4ccc(S(N)(=O)=O)cc4)nc(C4CC4)c3n2)cc1` [Example 292, 4-[4-Cyclopropyl-2-(4-sulfamoyl-benzylamino)-pyrido[3,2-d]pyrimidin-6-yl]-benzamide] the same measures were 5 to 25 µM and below 0.1 µM.
In data set [1], `CC(C)(N)C(=O)Nc1ccc(-c2ccc3nc(NCc4ccc(F)cc4)nc(NCC(F)(F)F)c3n2)cc1` [Example 277, 2-Amino-N-{4-[2-(4-fluoro-benzylamino)-4-(2,2,2-trifluoro-ethylamino)-pyrido[3,2-d]pyrimidin-6-yl]-phenyl}-2-methyl-propionamide] yielded a CC50 at 3 days below 5 µM. This compound also came in with an EC50 in data set [2] below 0.1 µM.
The corresponding values for `CCOc1nc(NCc2ccc(S(N)(=O)=O)cc2)nc2ccc(-c3ccc(F)c(NS(=O)(=O)C4CC4)c3)nc12` [Example 139, 4-{[4-Ethoxy-6-(4-(3-cyclopropanesulfonamido-4-fluoro)-phenyl)-pyrido[3,2-d]pyrimidin-2-ylamino]-methyl}-benzenesulfonamide] are below 5 µM and below 0.1 µM.
In data set [1], `NS(=O)(=O)CCNc1nc(NCC(F)(F)F)c2nc(-c3ccc(F)cc3)ccc2n1` [Example 259, 2-[6-(4-Fluoro-phenyl)-4-(2,2,2-trifluoro-ethylamino)-pyrido[3,2-d]pyrimidin-2-ylamino]-ethanesulfonic acid amide] displayed a CC50 at 3 days of 5 to 25 µM. For the same compound, the EC50 in data set [2] was below 0.1 µM.
